The target in this experiment is Serine/threonine-protein kinase PLK1 (Homo sapiens, UniProt P53350). The experiment in a line: Fluorescent Polarization Binding Assay. As to conditions: pH 8; 25 °C.

Our source for the IC50 values is BindingDB's records for patent US9175357 (University of South Carolina, 2015).

Serine/threonine-protein kinase PLK1, sequence (P53350 whole entry): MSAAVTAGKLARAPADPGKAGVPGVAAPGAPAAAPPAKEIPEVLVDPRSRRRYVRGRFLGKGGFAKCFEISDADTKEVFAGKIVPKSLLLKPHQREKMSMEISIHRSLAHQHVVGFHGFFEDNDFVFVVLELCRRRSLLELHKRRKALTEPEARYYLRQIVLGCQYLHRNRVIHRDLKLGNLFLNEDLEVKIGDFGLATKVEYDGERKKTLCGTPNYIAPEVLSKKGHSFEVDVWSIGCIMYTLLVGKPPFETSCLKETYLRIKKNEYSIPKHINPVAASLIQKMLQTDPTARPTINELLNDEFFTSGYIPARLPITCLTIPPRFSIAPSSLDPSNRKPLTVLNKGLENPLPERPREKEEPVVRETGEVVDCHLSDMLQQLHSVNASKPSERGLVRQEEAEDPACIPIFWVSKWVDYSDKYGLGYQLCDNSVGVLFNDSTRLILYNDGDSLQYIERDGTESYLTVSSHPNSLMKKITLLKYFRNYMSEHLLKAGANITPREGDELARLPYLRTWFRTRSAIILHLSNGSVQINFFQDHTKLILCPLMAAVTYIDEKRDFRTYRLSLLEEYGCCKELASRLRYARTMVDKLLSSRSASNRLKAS

Consider `CNC(=O)c1cc(CCCN2CCOCC2)n(-c2ccccc2)c1C` [US9175357, 5600], for which the IC50 – broadly, the point on the concentration scale where inhibition reaches its midpoint – is 550 µM.
